Tests used:
[1] = system: HCH mouse model (Fgfr3^N534K/+), mandible bone repair; experiment: Non-stabilized mandibular fracture repair in HCH mice treated with BMN111 (microCT, repair grade); assay type: in vivo
Procedure: Mandibular bone repair was studied in the HCH mouse model (Fgfr3^N534K/+). The experiments were performed in adult animals at 6 weeks of age, and mice were euthanized at 4 key points: during bone repair (10, 14, 21 days post fracture), and at the end of the normal bone healing process i.e. at 28 days post fracture.
Vertical mandibular fractures were performed in the ascending ramus region in Fgfr3^N534K/+ and Fgfr3^+/+ mice. This is a non-stabilized mandibular fracture protocol allowing to analyze the endochondral bone repair process.
Four batches (n=100) of Fgfr3^N534K/+ and Fgfr3^+/+ mandible fractures corresponding to different key stages of repair were studied (day 10, day 14, day 21, day 28). Using collagen type II (proliferative cartilage), type X (hypertrophic cartilage) and type I (bone) immunolabelling, we observed that the endochondral process is disturbed, we noted a delayed cartilage resorption, a reduction in the size of hypertrophic chondrocytes area and a defect in bone formation within the repair callus in Fgfr3^N534K/+ compared to Fgfr3^+/+. […] We observed the presence of pseudarthrosis (fibrosis in the callus) in Fgfr3^N534K/+ mice whereas we observed 100% of bone in Fgfr3^+/+ callus. Considering the quality of the newly formed bone at day 28, we defined four grades of repair and classified the mice according to their repair grade (from 1 to 4). The defective repair is significant in Fgfr3^N534K/+ compared to Fgfr3^+/+ (FIG. 1C).
In order to analyze the bone microarchitecture, we performed microCT scans. We observed an alteration in the microarchitecture of callus formation from day10 to day 28 Fgfr3^N534K/+ compared to Fgfr3^+/+.
HCH mice (Fgfr3^N534K/+) were treated with BMN111 (subcutaneous injection at 0.8 mg/kg, 3 times per week) from day 0 (facture of the mandible) to day 14 or day 28. The bone repair analyses were evaluated by microCT scans at day 14 and day 28 post fracture. […] BV/TV is increased at day 14 (+29%; p<0.005) in treated HCH mice (n=8) compared to untreated HCH mice (n=9). BV/TV is increased at day 28 post fracture and (+24% p<0.005) in the HCH mice (n=9) compared to the untreated HCH mice (n=14) (FIGS. 1A and 1B).

[2] = system: mouse model (Fgfr3^Y367C/+); settings: human ACH cells and Fgfr3^Y367C/+ mouse model; Lorget et al 2012; cited from earlier work
[3] = day 28 grade repair, treated HCH mice
[4] = microCT, day 28 post fracture, treated (n=9) vs untreated (n=14) HCH mice, BMN111 s.c. 0.8 mg/kg 3 times per week, p<0.005

In the case of “Vosoritide (PGQEHPNARKYKGANKKGLSKGCFGLKLDRIGSMSGLGC; chains of the INN, looked up) [BMN111, CNP analog, NPR2 agonist; formula C176H290N56O51S3, CAS Number 1480724-61-5]”, the “Complete bone healing (grade 1), mice observed” value [1, 3] is reported as 7/9, the “Restoration of bone continuity, but presence of mild bone defects (grade 2), mice observed” value [1, 3] is reported as 2/9 and the BV/TV increase ([1]; microCT, day 14 post fracture, treated (n=8) vs untreated (n=9) HCH mice, BMN111 s.c. 0.8 mg/kg 3 times per week, p<0.005) is reported as “+29%”. The callus volume ([1]; microCT, day 14 post fracture, treated vs untreated HCH mice, BMN111 s.c. 0.8 mg/kg 3 times per week) was “unchanged”, the BV/TV increase [1, 4] was “+24%” and the “decrease of the volume of the callus” value [1, 4] was −30.9%. For the same substance, the “pseudarthrosis in the callus” value ([1]; treated HCH mice, mandible fracture callus) was “without pseudarthrosis” and the “effect on long bone growth and the skull” value [2] was “beneficial effect”.

— patent publication US20260166127A1, “USE OF ANALOG OF C-TYPE NATRIURETIC PEPTIDE FOR THE TREATMENT OF FGFR-RELATED BONE REPAIR AND BONE FORMATION IMPAIRMENT” (INSTITUT NATIONAL DE LA SANTÉ ET DE LA RECHERCHE MÉDICALE, priority 2021, published 2026)
